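Growth conditions: 96-well plates. Treatment: test compound, 48 hours, 5 concentrations. Analysis: linear interpolation between bracketing concentrations; unreached endpoints set to highest concentration. GI50 marks 50% less growth.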 Activity calls are given as the source filed them. Cut-off read from the data, not from the text of the source: active = GI50 up to about 1.1 µM and inactive = higher.
Tests used:
Assay in all cases: inhibition of tumour cell growth, NCI panel, 48 h
MDA-MB-231 = system: MDA-MB-231
UO-31 = system: UO-31
Hs-578T = system: Hs-578T
SK-MEL-5 = system: SK-MEL-5
IGROV-1 = system: IGROV-1
UACC-257 = system: UACC-257
TK-10 = system: TK-10
SK-MEL-2 = system: SK-MEL-2
KM12 = system: KM12
Malme-3M = system: Malme-3M
A498 = system: A498
OVCAR-8 = system: OVCAR-8
M14 = system: M14
SW-620 = system: SW-620
786-0 = system: 786-0
HT-29 = system: HT-29
SN12C = system: SN12C
SK-MEL-28 = system: SK-MEL-28
SK-OV-3 = system: SK-OV-3
OVCAR-3 = system: OVCAR-3
RXF 393 = system: RXF 393
K562 = system: K562
SNB-19 = system: SNB-19
NCI-H522 = system: NCI-H522
HCT-116 = system: HCT-116
MDA-N = system: MDA-N
COLO 205 = system: COLO 205
CAKI-1 = system: CAKI-1
RPMI-8226 = system: RPMI-8226
DU-145 = system: DU-145
HOP-92 = system: HOP-92
T47D = system: T47D
SF-295 = system: SF-295
MOLT-4 = system: MOLT-4
MCF7 = system: MCF7
A549 = system: A549
NCI-H23 = system: NCI-H23
PC-3 = system: PC-3
SNB-75 = system: SNB-75
NCI/ADR-RES = system: NCI/ADR-RES
CCRF-CEM = system: CCRF-CEM
LOX IMVI = system: LOX IMVI
HL-60 = system: HL-60
HOP-62 = system: HOP-62
OVCAR-5 = system: OVCAR-5
UACC-62 = system: UACC-62
NCI-H226 = system: NCI-H226
EKVX = system: EKVX
U-251 = system: U-251
SF-268 = system: SF-268
SF-539 = system: SF-539
ACHN = system: ACHN
NCI-H460 = system: NCI-H460
OVCAR-4 = system: OVCAR-4
SR = system: SR
MDA-MB-435 = system: MDA-MB-435
HCT-15 = system: HCT-15

N#Cc1nc(C(O)c2ccccc2)oc1N (stereo not given)
GI50 (MDA-MB-231): > 100 µM (inactive) | GI50 (UO-31): > 100 µM (inactive) | GI50 (Hs-578T): > 100 µM (inactive) | GI50 (SK-MEL-5): > 100 µM (inactive) | GI50 (IGROV-1): > 100 µM (inactive) | GI50 (UACC-257): > 100 µM (inactive) | GI50 (TK-10): > 100 µM (inactive) | GI50 (SK-MEL-2): > 100 µM (inactive) | GI50 (KM12): > 100 µM (inactive) | GI50 (Malme-3M): > 100 µM (inactive) | GI50 (A498): > 100 µM (inactive) | GI50 (OVCAR-8): > 100 µM (inactive) | GI50 (M14): > 100 µM (inactive) | GI50 (SW-620): > 100 µM (inactive) | GI50 (786-0): > 100 µM (inactive) | GI50 (HT-29): > 100 µM (inactive) | GI50 (SN12C): > 100 µM (inactive) | GI50 (SK-MEL-28): > 100 µM (inactive) | GI50 (SK-OV-3): > 100 µM (inactive) | GI50 (OVCAR-3): > 100 µM (inactive) | GI50 (RXF 393): 17.9 µM (inactive) | GI50 (K562): > 100 µM (inactive) | GI50 (SNB-19): > 100 µM (inactive) | GI50 (NCI-H522): 76.6 µM (inactive) | GI50 (HCT-116): > 100 µM (inactive) | GI50 (MDA-N): > 100 µM (inactive) | GI50 (COLO 205): > 100 µM (inactive) | GI50 (CAKI-1): > 100 µM (inactive) | GI50 (RPMI-8226): > 100 µM (inactive) | GI50 (DU-145): > 100 µM (inactive) | GI50 (HOP-92): > 100 µM (inactive) | GI50 (T47D): > 100 µM (inactive) | GI50 (SF-295): > 100 µM (inactive) | GI50 (MOLT-4): > 100 µM (inactive) | GI50 (MCF7): > 100 µM (inactive) | GI50 (A549): > 100 µM (inactive) | GI50 (NCI-H23): > 100 µM (inactive) | GI50 (PC-3): > 100 µM (inactive) | GI50 (SNB-75): > 100 µM (inactive) | GI50 (NCI/ADR-RES): > 100 µM (inactive) | GI50 (CCRF-CEM): > 100 µM (inactive) | GI50 (LOX IMVI): > 100 µM (inactive) | GI50 (HL-60): > 100 µM (inactive) | GI50 (HOP-62): > 100 µM (inactive) | GI50 (OVCAR-5): > 100 µM (inactive) | GI50 (UACC-62): > 100 µM (inactive) | GI50 (NCI-H226): > 100 µM (inactive) | GI50 (EKVX): > 100 µM (inactive) | GI50 (U-251): > 100 µM (inactive) | GI50 (SF-268): > 100 µM (inactive) | GI50 (SF-539): > 100 µM (inactive) | GI50 (ACHN): > 100 µM (inactive)

C[C@]12CCC(N3CCCC3)CC1=CC[C@@H]1[C@@H]2CC[C@]2(C)C(O)[C@H](n3ccnc3)C[C@@H]12 (stereo not given in full)
GI50 (MDA-MB-231): > 100 µM (inactive) | GI50 (UO-31): 44.6 µM (inactive) | GI50 (Hs-578T): > 10 µM (inactive) | GI50 (SK-MEL-5): 53 µM (inactive) | GI50 (IGROV-1): 59.8 µM (inactive) | GI50 (UACC-257): 38.6 µM (inactive) | GI50 (TK-10): > 100 µM (inactive) | GI50 (SK-MEL-2): 41.9 µM (inactive) | GI50 (KM12): > 10 µM (inactive) | GI50 (A498): > 100 µM (inactive) | GI50 (OVCAR-8): 61.2 µM (inactive) | GI50 (M14): 15.7 µM (inactive) | GI50 (NCI-H460): 42.6 µM (inactive) | GI50 (SW-620): 45.7 µM (inactive) | GI50 (786-0): 41.6 µM (inactive) | GI50 (OVCAR-4): 73.6 µM (inactive) | GI50 (HT-29): 5.85 µM (inactive) | GI50 (SN12C): 46.5 µM (inactive) | GI50 (SK-MEL-28): 26.1 µM (inactive) | GI50 (OVCAR-3): 32.3 µM (inactive) | GI50 (RXF 393): 17.4 µM (inactive) | GI50 (K562): 27.2 µM (inactive) | GI50 (SNB-19): > 100 µM (inactive) | GI50 (NCI-H522): 49.9 µM (inactive) | GI50 (HCT-116): 38.1 µM (inactive) | GI50 (MDA-N): 44.2 µM (inactive) | GI50 (COLO 205): 30.3 µM (inactive) | GI50 (CAKI-1): > 100 µM (inactive) | GI50 (RPMI-8226): 30.8 µM (inactive) | GI50 (SR): 15.3 µM (inactive) | GI50 (DU-145): > 100 µM (inactive) | GI50 (HOP-92): > 100 µM (inactive) | GI50 (SF-295): 35.2 µM (inactive) | GI50 (MOLT-4): 14.2 µM (inactive) | GI50 (MDA-MB-435): 36.6 µM (inactive) | GI50 (MCF7): 45 µM (inactive) | GI50 (A549): 66.5 µM (inactive) | GI50 (NCI-H23): 53.6 µM (inactive) | GI50 (PC-3): 36.7 µM (inactive) | GI50 (SNB-75): > 10 µM (inactive) | GI50 (NCI/ADR-RES): > 100 µM (inactive) | GI50 (CCRF-CEM): 15.7 µM (inactive) | GI50 (LOX IMVI): 34.4 µM (inactive) | GI50 (HL-60): 5.58 µM (inactive) | GI50 (OVCAR-5): 53.8 µM (inactive) | GI50 (UACC-62): 32.1 µM (inactive) | GI50 (NCI-H226): > 100 µM (inactive) | GI50 (EKVX): > 100 µM (inactive) | GI50 (U-251): 75.9 µM (inactive) | GI50 (SF-268): > 10 µM (inactive) | GI50 (SF-539): 19 µM (inactive) | GI50 (HCT-15): 20.9 µM | GI50 (ACHN): 36.7 µM (inactive)

Reference: ChEMBL document CHEMBL1201862, “PubChem BioAssay data set” (2004)
